The source of these data is patent US20140128380A1, “METHODS OF MODULATING THE ACTIVITY OF THE MC1 RECEPTOR AND TREATMENT OF CONDITIONS RELATED TO THIS RECEPTOR” (Mimetica Pty Ltd, priority 2009, published 2014).

Each structure is given as a SMILES string.

T1 sequence (Q01726 whole entry): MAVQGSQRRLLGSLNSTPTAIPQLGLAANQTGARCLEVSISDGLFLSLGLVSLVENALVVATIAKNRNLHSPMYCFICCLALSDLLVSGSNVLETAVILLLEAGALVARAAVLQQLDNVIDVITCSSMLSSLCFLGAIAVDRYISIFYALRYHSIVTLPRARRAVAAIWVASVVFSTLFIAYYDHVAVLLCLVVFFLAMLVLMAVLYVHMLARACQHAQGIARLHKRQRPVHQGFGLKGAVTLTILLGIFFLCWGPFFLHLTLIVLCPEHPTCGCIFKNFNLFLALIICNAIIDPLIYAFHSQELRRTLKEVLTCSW

The test has as its target T1, human MC1R (hMC1R) (Homo sapiens, UniProt Q01726).
T1 construct: purchased Perkin Elmer ES-195-M400UA
Description: Human MC1R radioligand binding assay (displacement of 125I-labeled NDP-MSH, Perkin Elmer hMC1R membranes). Particulars: displacement of [125I]NDP-MSH, compounds tested as trifluoroacetate or hydrochloride salts or free base. On the procedure:
Assessments of compound binding to human MC1R (hMC1R)) by displacement of an ^125I-labeled NDP-MSH receptor ligand peptide were performed essentially as described in the data sheets produced by Perkin Elmer to accompany their frozen hMC1R membranes (Perkin Elmer catalog number ES-195-M400UA).
[^125I] NDP-MSH: radiolabeled in house and purified by HPLC:
Na ^125I (0.5 mCi, 17.4 Ci/mg) was added to 50 μL sodium phosphate (50 mM, pH 7.4) in an eppendorf tube precoated with IODOGEN. After incubation for 10 mins the phosphate buffer containing the iodine was added to NDP-MSH (10 ul at 1 mg/mL) in a separate eppendorf tube. This was incubated for a further 10 mins. The iodinated NDP-MSH was purified by HPLC on a Zorbax SB 300 column using solvent A: 0.05% TFA and solvent B: 90% acetonitrile 0.045% TFA with a linear gradient, 0-67% B over 60 mins.
Perkin Elmer frozen hMC1 membranes: catalog number ES-195-M400UA, 0.4 mL/vial; 400 microassays/vial, 0.78 mg/mL protein concentration
Vials of frozen membranes were thawed rapidly immediately before use, diluted with binding buffer and vortexed. Resuspended membranes were kept on ice until they were added to the wells of the plate.
Assays were performed in 96 well polypropylene plates. […] This was incubated for 1 hr at 37° C.
In general terms: Displacement assays read how much labelled ligand stays bound in the presence of the test substance.
With `O=C(/C=C/c1ccc(Br)cc1)NC[C@@H]1CCN(CC(c2ccccc2)c2ccccc2)C(=O)[C@H](CCN2CCCCC2)N1` [Compound 161, (E)-3-(4-bromophenyl)-N-(((3S,5S)-1-(2,2-diphenylethyl)-2-oxo-3-(2-(piperidin-1-yl)ethyl)-1,4-diazepan-5-yl)methyl)acrylamide], the IC50 (as a rule, the concentration that gives 50% inhibition) is less than 10 µM.

On to `O=C(NC[C@@H]1CCN(CC(c2ccccc2)c2ccccc2)C(=O)[C@H](CCN2CCCCC2)N1)c1cc(-c2ccc(Cl)cc2)on1` [Compound 162, 5-(4-chlorophenyl)-N-(((3S,5S)-1-(2,2-diphenylethyl)-2-oxo-3-(2-(piperidin-1-yl)ethyl)-1,4-diazepan-5-yl)methyl)isoxazole-3-carboxamide], for which the IC50 is less than 10 µM.

For `CC[C@H](CN1CC[C@@H](CNC(=O)c2ccc3cc(Cl)ccc3c2)N[C@@H](CCCN2CCCCC2)C1=O)c1ccccc1` [Compound 163, 6-chloro-N-(((3S,5S)-2-oxo-1-((S)-2-phenylbutyl)-3-(3-(piperidin-1-yl)propyl)-1,4-diazepan-5-yl)methyl)-2-naphthamide], the IC50 was less than 10 µM.

For the compound `CC(C)(NC(=O)/C=C/c1ccc(Cl)cc1)[C@@H]1CCN(CC(c2ccccc2)c2ccccc2)C(=O)[C@H](CCN)N1` [Compound 164, (E)-N-(2-((3S,5S)-3-(2-aminoethyl)-1-(2,2-diphenylethyl)-2-oxo-1,4-diazepan-5-yl)propan-2-yl)-3-(4-chlorophenyl)acrylamide], the IC50 is less than 10 µM.

As for `CC(C)(NC(=O)/C=C/c1ccc(Cl)cc1)[C@@H]1CCN(CC(c2ccccc2)c2ccccc2)C(=O)[C@H](CCN2CCCCC2)N1` [Compound 165, (E)-3-(4-chlorophenyl)-N-(2-((3S,5S)-1-(2,2-diphenylethyl)-2-oxo-3-(2-(piperidin-1-yl)ethyl)-1,4-diazepan-5-yl)propan-2-yl)acrylamide], the IC50 was less than 10 µM.

For `CNC(=O)[C@H](Cc1ccc2ccccc2c1)N1CC[C@H](CNC(=O)[C@@H](N)Cc2ccc(F)cc2)N[C@@H](CCCNC(=N)N)C1=O` [Compound 166, (S)-2-amino-3-(4-fluorophenyl)-N-(((3S,5R)-3-(3-guanidinopropyl)-1-((S)-1-(methylamino)-3-(naphthalen-2-yl)-1-oxopropan-2-yl)-2-oxo-1,4-diazepan-5-yl)methyl)propanamide], the IC50 is less than 10 µM.

As to `CNC(=O)[C@H](Cc1ccc2ccccc2c1)N1CC[C@H](CNC(=O)Cc2ccc(Cl)cc2)N[C@@H](CCCNC(=N)N)C1=O` [Compound 167, (S)-2-((3S,5R)-5-((2-(4-chlorophenyl)acetamido)methyl)-3-(3-guanidinopropyl)-2-oxo-1,4-diazepan-1-yl)-N-methyl-3-(naphthalen-2-yl)propanamide], the 50% inhibitory concentration (IC50) was less than 10 µM.

Turning to `CNC(=O)[C@H](Cc1ccc2ccccc2c1)N1CC[C@H](CNC(=O)[C@H](N)Cc2ccc(F)cc2)N[C@@H](CCCNC(=N)N)C1=O` [Compound 168, (R)-2-amino-3-(4-fluorophenyl)-N-(((3S,5R)-3-(3-guanidinopropyl)-1-((S)-1-(methylamino)-3-(naphthalen-2-yl)-1-oxopropan-2-yl)-2-oxo-1,4-diazepan-5-yl)methyl)propanamide], the IC50 was less than 10 µM.

For `CC[C@H](CN1CC[C@@H](CNC(=O)c2ccc(Cl)c(Cl)c2)N[C@@H](CCN)C1=O)c1ccccc1` [Compound 170, N-(((3S,5S)-3-(2-aminoethyl)-2-oxo-1-((S)-2-phenylbutyl)-1,4-diazepan-5-yl)methyl)-3,4-dichlorobenzamide], the half-maximal inhibitory concentration (IC50) is less than 10 µM.

`CC[C@H](CN1CC[C@@H](CNC(=O)c2ccc3cc(Cl)ccc3c2)N[C@@H](CC(C)(C)N2CCCCC2)C1=O)c1ccccc1` [Compound 171, 6-chloro-N-(((3S,5S)-3-(2-methyl-2-(piperidin-1-yl)propyl)-2-oxo-1-((S)-2-phenylbutyl)-1,4-diazepan-5-yl)methyl)-2-naphthamide]: the IC50 was less than 1 µM.
